Laboratory results from paper PMC9405451, “Uptake and Immunomodulatory Properties of Betanin, Vulgaxanthin I and Indicaxanthin towards Caco-2 Intestinal Cells” (Antioxidants, 2022).

How the values were obtained:
COX-2 [1] = test system: COX-2; parameters: method as in PMID 24306215; settings: rat model of carrageenan-induced pleurisy; cited from earlier work
iNOS [2] = test system: iNOS; parameters: method as in PMID 24306215; settings: rat model of carrageenan-induced pleurisy; cited from earlier work
COX-2 [3] = test system: COX-2; parameters: method as in PMID 23931157; settings: 25 μM; cited from earlier work
iNOS [4] = test system: iNOS; parameters: method as in PMID 23931157; settings: 25 μM; cited from earlier work
NOX-1 = test system: NOX-1; parameters: method as in PMID 23931157; settings: 25 μM; cited from earlier work
[5] = parameters: method as in PMID 15447903, PMID 24306215, PMID 28358315; settings: in vivo; cited from earlier work
NQO-1 = NQO-1 mRNA level (qPCR) in cytokine-stimulated Caco-2 cells; assay type: cell-based, human; settings: 5–80 μM, 6 h cytokine stimulation, vs SC
Protocol: Confluent Caco-2 cells were stimulated with a cocktail of cytokines comprised of tumour necrosis factor-α (TNF-α, 20 ng mL^−1), interleukin-1β (IL-1β, 40 ng mL^−1), interferon-γ (IFN-γ, 10 ng mL^−1) and lipopolysaccharide (LPS, 100 ng mL^−1) in the presence or absence of BET, VUL and IND treatments (5–80 µM) for 6 h. With the completion of incubations, cells were washed with cold DPBS and lysed with TRIsure reagent (Scientific Laboratory Supplies Ltd.). Total RNA of cell samples was extracted in accordance with the manufacturer’s instructions. After resuspending the RNA pellets in DEPC water, concentration and quality were determined using the NanoQuant plate (Tecan Spark 10M plate reader) at 260 and 280 nm. Reverse transcription of RNA was achieved using the iScript™ cDNA Synthesis Kit (Bio-Rad). Transcription levels of target genes—interleukin 6 (IL-6), IL-8, COX-2, iNOS, NADPH oxidase 1 (NOX-1), NAD(P)H quinone dehydrogenase 1 (NQO-1), heme oxygenase 1 (HO-1), glutamate-cysteine ligase catalytic subunit (GCLC), glutathione peroxidase 1 (GPX-1), glutathione S-transferase 1 (GSTA-1) and GSTP-1 were evaluated using SybrGreen based reagent (SensiFast SYBR Green, SLS Ltd., Galveston, TX, USA) via real-time qPCR using StepOne Plus Real-Time PCR System (Applied Biosystems, Nottingham, UK). […]

Row | Compound | Suppression of COX-2 (COX-2 [1]) [%] | Suppression of iNOS (iNOS [2]) [%] | Suppression of COX-2 protein levels (COX-2 [3]) [%] | Suppression of iNOS protein levels (iNOS [4]) [%] | Suppression of NOX-1 protein levels (NOX-1) [%] | Plasma concentration of IND compared with BET [5] | Urinary recovery of IND compared with BET [5] | Upregulation of NQO-1 expression (NQO-1) [%]
1 | O=C(O)C1=C/C(=C/C=[N+]2/CCC[C@H]2C(=O)[O-])C[C@@H](C(=O)O)N1 [IND, indicaxanthin] | 88 | 75 | 80 | 90 | 89 | around 20 fold | around 20 fold | –
2 | O=C(O)C1=C/C(=C/C=[N+]2/c3cc(O)c(O[C@@H]4O[C@H](CO)[C@@H](O)[C@H](O)[C@H]4O)cc3C[C@H]2C(=O)[O-])C[C@@H](C(=O)O)N1 [BET, betanin] | – | – | – | – | – | – | – | < 24
